PubChem BioAssay (NCI)
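Cells were grown in 96-well plates and exposed to each compound for 48 hours at five concentrations; endpoints were interpolated linearly between bracketing concentrations, or set to the highest concentration if not reached. Abbreviation: GI50, concentration required for 50% inhibition of growth. Definition used: TGI = concentration required for complete inhibition of growth.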

Legend:
Experiment in all cases: inhibition of tumour cell growth, NCI panel, 48 h
[1] = tested on: HOP-92 NSCLC
[2] = tested on: M14 melanoma
[3] = tested on: HT29 colon
[4] = tested on: TK-10 renal
[5] = tested on: IGROV1 ovarian
[6] = tested on: MOLT-4 leukemia
[7] = tested on: NCI-H226 lung
[8] = tested on: MCF7 breast
[9] = tested on: DU-145 prostate
[10] = tested on: CAKI-1 renal
[11] = tested on: OVCAR-3 ovarian
[12] = tested on: SK-OV-3 ovarian
[13] = tested on: SF-295 CNS
[14] = tested on: HL-60(TB) leukemia
[15] = tested on: NCI-H23 lung
[16] = tested on: HCT-116 colon
[17] = tested on: UACC-257 melanoma
[18] = tested on: CCRF-CEM leukemia
[19] = tested on: MDA-MB-435
[20] = tested on: MALME-3M melanoma
[21] = tested on: OVCAR-8 ovarian
[22] = tested on: MDA-MB-231 breast
[23] = tested on: OVCAR-5 ovarian
[24] = tested on: COLO 205 colon
[25] = tested on: SNB-75 CNS
[26] = tested on: A498 renal
[27] = tested on: SNB-19 CNS
[28] = tested on: NCI-H522 lung
[29] = tested on: NCI-H460 lung
[30] = tested on: HCC-2998 colon
[31] = tested on: SK-MEL-2 melanoma
[32] = tested on: ACHN renal
[33] = tested on: NCI/ADR-RES ovarian
[34] = tested on: UACC-62 melanoma
[35] = tested on: RPMI-8226 leukemia
[36] = tested on: OVCAR-4 ovarian
[37] = tested on: KM12 colon
[38] = tested on: HCT-15 colon
[39] = tested on: SK-MEL-5 melanoma
[40] = tested on: U251 CNS
[41] = tested on: UO-31 renal
[42] = tested on: HOP-62 NSCLC
[43] = tested on: 786-0 renal
[44] = tested on: A549 NSCLC
[45] = tested on: SF-268 CNS
[46] = tested on: SF-539 CNS
[47] = tested on: K-562 leukemia
[48] = tested on: SR leukemia
[49] = tested on: PC-3 prostate
[50] = tested on: BT-549 breast
[51] = tested on: RXF 393 renal
[52] = tested on: T-47D breast
[53] = tested on: SK-MEL-28 melanoma
[54] = tested on: HS 578T breast
[55] = tested on: LOX IMVI melanoma
[56] = tested on: SN12C renal
[57] = tested on: SW-620 colon
[58] = tested on: EKVX NSCLC

NC(N)=N/N=C/c1ccc(Br)cc1 was tested, and the GI50 [1] was 5.78 µM, the TGI [1] was 24 µM and the GI50 [2] was 2.21 µM. The TGI [2] was 5.67 µM, the GI50 [3] was 3.03 µM and the TGI [3] was 11.3 µM. The GI50 [4] was 7.44 µM, the TGI [4] was 21.3 µM and the GI50 [5] was 4.91 µM. It also gave a TGI [5] of 24.2 µM, a GI50 [6] of 3.98 µM and a TGI [6] of over 100 µM. For the same compound, the GI50 [7] was 5.15 µM, the TGI [7] was 17.4 µM and the GI50 [8] was 2.28 µM. For the same compound, the TGI [8] was 11.7 µM, the GI50 [9] was 5.5 µM and the TGI [9] was 22.1 µM. The GI50 [10] was 3.02 µM, the TGI [10] was 15.2 µM and the GI50 [11] was 3.41 µM. It also gave a TGI [11] of 9.23 µM, a GI50 [12] of 6.75 µM and a TGI [12] of 30.5 µM. The GI50 [13] was 2.95 µM, the TGI [13] was 11.8 µM and the GI50 [14] was 2.5 µM. The TGI [14] was over 100 µM, the GI50 [15] was 4.81 µM and the TGI [15] was 19.6 µM. It also gave a GI50 [16] of 4.02 µM, a TGI [16] of 15.8 µM and a GI50 [17] of 12.8 µM. It also gave a TGI [17] of 29.1 µM, a GI50 [18] of 12.6 µM and a TGI [18] of over 100 µM. For the same compound, the GI50 [19] was 1.07 µM, the TGI [19] was 3.81 µM and the GI50 [20] was 10.1 µM. It also gave a TGI [20] of 22.7 µM, a GI50 [21] of 5.3 µM and a TGI [21] of 21.2 µM. It also gave a GI50 [22] of 4.49 µM, a TGI [22] of 14 µM and a GI50 [23] of 10.4 µM. The TGI [23] was 24.9 µM, the GI50 [24] was 2.99 µM and the TGI [24] was 7.21 µM. For the same compound, the GI50 [25] was 1.6 µM, the TGI [25] was 5.76 µM and the GI50 [26] was 3.57 µM. For the same compound, the TGI [26] was 13.7 µM, the GI50 [27] was 5.74 µM and the TGI [27] was 24.2 µM. For the same compound, the GI50 [28] was 4.39 µM, the TGI [28] was 17.7 µM and the GI50 [29] was 3.29 µM. For the same compound, the TGI [29] was 11.7 µM, the GI50 [30] was 1.14 µM and the TGI [30] was 3.16 µM. The GI50 [31] was 12 µM, the TGI [31] was 26.4 µM and the GI50 [32] was 7.2 µM. It also gave a TGI [32] of 20.1 µM, a GI50 [33] of 3.15 µM and a TGI [33] of 10.6 µM. For the same compound, the GI50 [34] was 5.36 µM, the TGI [34] was 17.8 µM and the GI50 [35] was 11.6 µM. For the same compound, the TGI [35] was over 100 µM, the GI50 [36] was 10.3 µM and the TGI [36] was 31.6 µM. The GI50 [37] was 3.42 µM, the TGI [37] was 15.5 µM and the GI50 [38] was 3.89 µM. It also gave a TGI [38] of 19 µM, a GI50 [39] of 2.36 µM and a TGI [39] of 9.28 µM. For the same compound, the GI50 [40] was 3.58 µM, the TGI [40] was 15.4 µM and the GI50 [41] was 5.72 µM. The TGI [41] was 19.7 µM, the GI50 [42] was 9.8 µM and the TGI [42] was 24.2 µM. The GI50 [43] was 5.11 µM, the TGI [43] was 17.7 µM and the GI50 [44] was 6.46 µM. It also gave a TGI [44] of 23.4 µM, a GI50 [45] of 12.4 µM and a TGI [45] of 38.2 µM. It also gave a GI50 [46] of 2.33 µM, a TGI [46] of 6.35 µM and a GI50 [47] of 3.72 µM. For the same compound, the TGI [47] was over 100 µM, the GI50 [48] was 1.84 µM and the TGI [48] was 47 µM. It also gave a GI50 [49] of 4.57 µM, a TGI [49] of 24 µM and a GI50 [50] of 5.64 µM. The TGI [50] was 16.7 µM, the GI50 [51] was 3.68 µM and the TGI [51] was 12.3 µM. The GI50 [52] was 5.57 µM, the TGI [52] was 23.7 µM and the GI50 [53] was 5.61 µM. The TGI [53] was 18.8 µM, the GI50 [54] was 3.33 µM and the TGI [54] was 10.2 µM. For the same compound, the GI50 [55] was 6.45 µM, the TGI [55] was 20.8 µM and the GI50 [56] was 6.55 µM. It also gave a TGI [56] of 20.2 µM, a GI50 [57] of 3.8 µM and a TGI [57] of 15.9 µM.

Cn1c2c(c3c(=O)[nH]ncc31)CCCc1ccccc1-2 was tested, and the TGI [1] was 41.3 µM, the TGI [2] was over 100 µM and the TGI [3] was over 100 µM. The TGI [4] was over 100 µM, the TGI [5] was 61.6 µM and the TGI [6] was 21.6 µM. It also gave a TGI [7] of 86 µM, a TGI [8] of 53 µM and a TGI [9] of over 100 µM. For the same compound, the TGI [10] was 69.9 µM, the TGI [11] was 86.4 µM and the TGI [12] was 64 µM. For the same compound, the TGI [13] was over 100 µM, the TGI [14] was 16.3 µM and the TGI [15] was over 100 µM. It also gave a TGI [16] of over 100 µM, a TGI [17] of over 100 µM and a TGI [18] of over 100 µM. The TGI [19] was 50.4 µM, the TGI [20] was 60.7 µM and the TGI [21] was 83.5 µM. It also gave a TGI [58] of over 100 µM, a TGI [22] of over 100 µM and a TGI [23] of over 100 µM. It also gave a TGI [24] of 34.5 µM, a TGI [25] of over 100 µM and a TGI [26] of 57.3 µM. It also gave a TGI [27] of over 100 µM, a TGI [28] of 38.3 µM and a TGI [29] of 67.7 µM. The TGI [31] was 40.2 µM, the TGI [32] was 98.9 µM and the TGI [33] was over 100 µM. For the same compound, the TGI [34] was over 100 µM, the TGI [35] was 40.2 µM and the TGI [36] was over 100 µM. For the same compound, the TGI [37] was over 100 µM, the TGI [38] was over 100 µM and the TGI [39] was 30.5 µM. The TGI [40] was 92.1 µM, the TGI [41] was 53.1 µM and the TGI [42] was over 100 µM. It also gave a TGI [43] of over 100 µM, a TGI [44] of over 100 µM and a TGI [45] of 98.8 µM. For the same compound, the TGI [46] was over 100 µM, the TGI [47] was over 100 µM and the TGI [48] was 51.8 µM. The TGI [49] was over 100 µM, the TGI [50] was over 100 µM and the TGI [52] was over 100 µM. For the same compound, the TGI [54] was over 100 µM, the TGI [55] was 46.1 µM and the TGI [56] was 66.3 µM. It also gave a TGI [57] of over 100 µM.
